The test system of test [1] is wildtype Wnt signaling cascade. As to the kind of experiment: HEK293 TOP Assay (Super TopFlash luciferase reporter, Wnt-3a stimulated). In kind it is cell-based. The conditions noted are these: Homo sapiens, HEK293, 16 h. As for the experimental part: In order to discover and characterize small molecules which inhibit the wildtype Wnt pathway, a cellular reporter assay was employed. The corresponding assay cell was generated by transfection of the mammalian cell line HEK293 (ATCC, #CRL-1573) with the Super TopFlash vector (Morin, Science 275, 1997, 1787-1790; Molenaar et al., Cell 86 (3), 1996, 391-399). The HEK293 cell line is cultivated at 37° C. and 5% CO2 in DMEM (Life Technologies, #41965-039), supplemented with 2 mM glutamine, 20 mM HEPES, 1.4 mM pyruvate, 0.15% Na-bicarbonate and 10% foetal bovine serum (GIBCO, #10270). Stable transfectants were generated by selection with 300 μg/ml Hygromycin.
(§1) In preparation of the assay, the two cell lines were plated 24 hrs before beginning the test at 10000 cells per well in a 384 micro titre plate (MTP) in 30 μl growth medium. […] The recombinant human Wnt-3a was thereby applied between 2500 and 5 ng/ml in two-fold dilution steps.
(§2) Selective inhibitory activity for small molecules on the wildtype Wnt pathway was determined after parallel incubation of both (TOP and FOP) HEK293 reporter cell lines with a compound dilution series from 50 μM to 15 nM in steps of 3.16-fold dilutions in CAFTY buffer (130 mM sodium chloride, 5 mM potassium chloride, 20 mM HEPES, 1 mM magnesium chloride, 5 mM sodium bicarbonate, pH 7.4) containing 2 mM Ca^2+ and 0.01% BSA.
(§3) The compounds were thereby serially prediluted in 100% DMSO and thereafter 50 fold into the CAFTY compound dilution buffer (described above).

The test system of test [2] is HEK293 FOP control reporter cell line. The experiment in a line: HEK293 FOP Assay (FOP control vector luciferase reporter). In kind it is cell-based. The conditions noted are these: Homo sapiens. As for the experimental part: In a parallel approach, HEK293 cells were cotransfected with the FOP control vector and pcDNA3. The FOP vector is identical to the TOP construct, but it contains instead of functional TCF elements a randomized, non-functional sequence. For this transfection a stable transfected cell line was generated as well, based on selection with Geneticin (1 mg/ml).
as §1, §2, §3
(In general: Reporter assays use an easily measured gene product as a stand-in for the process of interest.)

Where [3] appears, read: HEK293 TOP reporter cell line, Wnt-3a at EC50, 16 hours incubation, compound dilution series 50 μM to 15 nM.
Where [4] appears, read: HEK293 TOP reporter cells, Wnt3a at EC50, 16 hours, luciferase.
The mark [5] stands for this setting: HEK293 FOP control reporter cells, 16 hours, luciferase, dilution series from 50 μM.
The mark [6] stands for this setting: HEK293 FOP control reporter cell line, 16 hours incubation, compound dilution series 50 μM to 15 nM.

For orientation: IC50 means the point on the concentration scale where inhibition reaches its midpoint. In the case of `O=C(Nc1ccc(NC(=O)c2[nH]cnc2C(=O)N2CC3(COC3)C2)cc1)c1ccc(F)cc1` [Example 34, N-{4-[(4-fluorobenzoyl)amino]phenyl}-5-(2-oxa-6-azaspiro[3.3]hept-6-ylcarbonyl)-1H-imidazole-4-carboxamide], the IC50 in test [1] (setting [3]) was 12 µM; in test [1] (setting [4]), 12 µM; in test [2] (setting [5]), at least 50 µM.
For the compound `CNC(=O)c1nc[nH]c1C(=O)Nc1ccc(NC(=O)c2c(F)cccc2F)cc1` [Example 38, N^5-{4-[(2,6-difluorobenzoyl)amino]phenyl}-N^4-methyl-1H-imidazole-4,5-dicarboxamide], the IC50 in test [1] (setting [3]) came to 2.3 µM; in test [1] (setting [4]), 2.3 µM; in test [2] (setting [6]), 14 µM; in test [2] (setting [5]) it was 14 µM.
For the compound `CNC(=O)c1nc[nH]c1C(=O)Nc1ccc(NC(=O)c2ccc(OC)c(OC)c2OC)cc1` [Example 40, N^4-methyl-N^5-{4-[(2,3,4-trimethoxybenzoyl)amino]phenyl}-1H-imidazole-4,5-dicarboxamide], the values for the half-maximal inhibitory concentration (IC50) in test [1] (setting [3]), in test [1] (setting [4]) and in test [2] (setting [5]) were 12 µM, 12 µM and at least 50 µM, respectively.
Consider `CNC(=O)c1nc[nH]c1C(=O)Nc1ccc(NC(=O)c2ccccc2C(F)(F)F)cc1` [Example 58, N^4-methyl-N^5-(4-{[2-(trifluoromethyl)benzoyl]amino}phenyl)-1H-imidazole-4,5-dicarboxamide], for which the IC50 in test [1] (setting [3]) worked out at 3.35 µM; in test [2] (setting [6]) it was 29 µM.
The matching figures for `CNC(=O)c1nc[nH]c1C(=O)Nc1ccc(NC(=O)c2ccc(F)cc2)c(F)c1` [Example 76, N^5-{3-fluoro-4-[(4-fluorobenzoyl)amino]phenyl}-N^4-methyl-1H-imidazole-4,5-dicarboxamide]: 12 µM and 7.4 µM.
The matching figures for `COC(=O)c1nc[nH]c1C(=O)Nc1ccc(NC(=O)c2ccccc2Cl)c(F)c1` [Example 79, methyl-5-({4-[(2-chlorobenzoyl)amino]-3-fluorophenyl}carbamoyl)-1H-imidazole-4-carboxylate]: 0.51 µM and 8.2 µM.
On to `COC(=O)c1nc[nH]c1C(=O)Nc1ccc(NC(=O)c2ccc(F)cc2Cl)c(C)c1` [Example 83, methyl 5-({4-[(2-chloro-4-fluorobenzoyl)amino]-3-methylphenyl}carbamoyl)-1H-imidazole-4-carboxylate], for which the IC50 in test [1] (setting [3]) came to 0.39 µM; in test [2] (setting [6]), 29 µM.
The matching figures for `CNC(=O)c1nc[nH]c1C(=O)Nc1ccc(NC(=O)c2ccccc2Cl)c(C)c1` [Example 87, N^5-{4-[(2-chlorobenzoyl)amino]-3-methylphenyl}-N^4-methyl-1H-imidazole-4,5-dicarboxamide]: 1.25 µM and 28 µM.
Consider `COC(=O)c1nc[nH]c1C(=O)Nc1ccc(NC(=O)c2ccc(F)cc2)c(C)c1` [Example 90, methyl-5-({4-[(4-fluorobenzoyl)amino]-3-methylphenyl}carbamoyl)-1H-imidazole-4-carboxylate], for which the IC50 came to 4.9 µM in test [1] (setting [3]) and 13 µM in test [2] (setting [6]).
The matching figures for `Cc1cc(NC(=O)c2[nH]cnc2C(=O)NCCN(C)C)ccc1NC(=O)c1ccc(F)cc1` [Example 92, N^4-[2-(dimethylamino)ethyl]-N^5-{4-[(4-fluorobenzoyl)amino]-3-methylphenyl}-1H-imidazole-4,5-dicarboxamide]: 6.95 µM and 13 µM.
Consider `COc1cc(NC(=O)c2[nH]cnc2C(=O)NCCN2CCCCC2)ccc1NC(=O)c1ccc(F)cc1` [Example 105, N^5-{4-[(4-fluorobenzoyl)amino]-3-methoxyphenyl}-N^4-[2-(piperidin-1-yl)ethyl]-1H-imidazole-4,5-dicarboxamide], for which the values for the IC50 in test [1] (setting [3]) and in test [2] (setting [6]) were 1.65 µM and 29 µM, respectively.
The matching figures for `CC(C)c1nc(C(=O)Nc2ccc(NC(=O)c3ccc(F)cc3Cl)cc2)c(C(=O)NCCN(C)C)[nH]1` [Example 107, N^4-{4-[(2-chloro-4-fluorobenzoyl)amino]phenyl}-N^5-[2-(dimethylamino)ethyl]-2-isopropyl-1H-imidazole-4,5-dicarboxamide]: 7.25 µM and 39 µM.
The like results for `CC(C)(C)NC(=O)c1[nH]cnc1C(=O)Nc1ccc(NC(=O)c2ccc(F)cc2)cc1` [Example 129, N^5-tert-butyl-N^4-{4-[(4-fluorobenzoyl)amino]phenyl}-1H-imidazole-4,5-dicarboxamide] were, in that order, 6.75 µM and 15 µM.
The matching figures for `CC(C)[C@@H](C)NC(=O)c1[nH]cnc1C(=O)Nc1ccc(NC(=O)c2ccc(F)cc2)cc1` [Example 135, N^4-{4-[(4-fluorobenzoyl)amino]phenyl}-N^5-[(2R)-3-methylbutan-2-yl]-1H-imidazole-4,5-dicarboxamide]: 7.25 µM and 22 µM.
Consider `CNC(=O)c1nc[nH]c1C(=O)Nc1ccc(NC(=O)c2ccnc(Cl)c2)cc1` [Example 351, N^5-(4-{[(2-chloropyridin-4-yl)carbonyl]amino}phenyl)-N^4-methyl-1H-imidazole-4,5-dicarboxamide], for which the midpoint of inhibition in test [1] (setting [3]), the IC50, lay at 12.5 µM.
For the compound `CNC(=O)c1nc[nH]c1C(=O)Nc1ccc(NC(=O)c2ccno2)cc1` [Example 354, N^4-methyl-N^5-{4-[(1,2-oxazol-5-ylcarbonyl)amino]phenyl}-1H-imidazole-4,5-dicarboxamide], the IC50 in test [1] (setting [3]) came out at 50 µM.
Same read-out and setting: then `CNC(=O)c1nc[nH]c1C(=O)Nc1ccc(NC(=O)c2ccc(OC)c(C)c2)cc1` [Example 355, N^5-{4-[(4-methoxy-3-methylbenzoyl)amino]phenyl}-N^4-methyl-1H-imidazole-4,5-dicarboxamide], with 25 µM; and `CNC(=O)c1nc[nH]c1C(=O)Nc1ccc(NC(=O)c2ccc(C)cn2)cc1` [Example 357, N^4-methyl-N^5-(4-{[(5-methylpyridin-2-yl)carbonyl]amino}phenyl)-1H-imidazole-4,5-dicarboxamide], with 11.2 µM; and `CNC(=O)c1nc[nH]c1C(=O)Nc1ccc(NC(=O)c2cccc(C(F)(F)F)c2Cl)cc1` [Example 358, N^5-(4-{[2-chloro-3-(trifluoromethyl)benzoyl]amino}phenyl)-N^4-methyl-1H-imidazole-4,5-dicarboxamide], with 4.1 µM.
For the compound `CNC(=O)c1nc[nH]c1C(=O)Nc1ccc(NC(=O)c2cc(F)cc(Cl)c2)cc1` [Example 360, N^5-{4-[(3-chloro-5-fluorobenzoyl)amino]phenyl}-N^4-methyl-1H-imidazole-4,5-dicarboxamide], inhibition in test [1] (setting [3]) was half-maximal at 15.2 µM (IC50).
`CNC(=O)c1nc[nH]c1C(=O)Nc1ccc(NC(=O)c2cc(F)c(F)c(Cl)c2)cc1` [Example 362, N^5-{4-[(3-chloro-4,5-difluorobenzoyl)amino]phenyl}-N^4-methyl-1H-imidazole-4,5-dicarboxamide] showed an IC50 in test [1] (setting [3]) of 50 µM. This IC50 is about 3.3-fold higher than that of the compound before.
Same read-out and setting: then `CNC(=O)c1nc[nH]c1C(=O)Nc1ccc(NC(=O)c2cccc(OC)c2F)cc1` [Example 365, N^5-{4-[(2-fluoro-3-methoxybenzoyl)amino]phenyl}-N^4-methyl-1H-imidazole-4,5-dicarboxamide], with 50 µM; and `CNC(=O)c1nc[nH]c1C(=O)Nc1ccc(NC(=O)c2cc(F)cc(C#N)c2)cc1` [Example 371, N^5-{4-[(3-cyano-5-fluorobenzoyl)amino]phenyl}-N^4-methyl-1H-imidazole-4,5-dicarboxamide], with 50 µM; and `CNC(=O)c1nc[nH]c1C(=O)Nc1ccc(NC(=O)c2ccc(F)c(C)c2)cc1` [Example 373, N^5-{4-[(4-fluoro-3-methylbenzoyl)amino]phenyl}-N^4-methyl-1H-imidazole-4,5-dicarboxamide], with 4.2 µM.
`CC(C)OCCCNC(=O)c1nc[nH]c1C(=O)Nc1ccc(NC(=O)c2ccc(F)cc2Cl)cc1` [Example 383, N^5-{4-[(2-chloro-4-fluorobenzoyl)amino]phenyl}-N^4-[3-(propan-2-yloxy)propyl]-1H-imidazole-4,5-dicarboxamide] had a concentration for half-maximal inhibition (IC50) in test [1] (setting [3]) of 50 µM.
In the case of `O=C(Nc1ccc(NC(=O)c2[nH]cnc2C(=O)NCCN2CCCC2=O)cc1)c1ccc(F)cc1Cl` [Example 398, N^5-{4-[(2-chloro-4-fluorobenzoyl)amino]phenyl}-N^4-[2-(2-oxopyrrolidin-1-yl)ethyl]-1H-imidazole-4,5-dicarboxamide], the IC50 in test [1] (setting [3]) is 0.71 µM.
The same measure, in the same setting: then `O=C(Nc1ccc(NC(=O)c2[nH]cnc2C(=O)NCCN2CCNC2=O)cc1)c1ccc(F)cc1Cl` [Example 399, N^5-{4-[(2-chloro-4-fluorobenzoyl)amino]phenyl}-N^4-[2-(2-oxoimidazolidin-1-yl)ethyl]-1H-imidazole-4,5-dicarboxamide], with 1.2 µM.

For the origin of these results see patent US9884063B2, “Amido-substituted azole compounds” (Bayer Pharma Aktiengesellschaft, priority 2014, dated 2018).
